Source: US7723523B2, “Tetrahydropyridothiophenes” (4SC AG, priority 2004, dated 2010)

What was measured:
[1] = system: RKO (RKOp27) human colon adenocarcinoma cells; assay: Alamar Blue cell viability assay, anti-proliferative/cytotoxic activity on proliferating RKOp27 cells; assay type: cell-based; conditions: absence of Ponasterone A, 72 hours incubation, read-out: IC50 RKO p27 proliferating
Procedure: The anti-proliferative/cytotoxic activity of the compounds described herein, can be tested on subclones of RKO (RKOp27) human colon adenocarcinoma cells (Schmidt et al., Oncogene 19, 2423-2429; 2000) using the Alamar Blue cell viability assay (described in O'Brien et al. Eur J Biochem 267, 5421-5426, 2000). The compounds are dissolved as 20 mM solutions in dimethylsulfoxide (DMSO) and subsequently diluted in semi-logarithmic steps. DMSO dilutions are further diluted 1:100 into Dulbecco's modified Eagle's medium (DMEM) containing 10% fetal calf serum to a final concentration twice as much as the final concentration in the test. RKO subclones are seeded into 96 well flat bottom plates at a density of 4000 cells per well in a volume of 50 μl per well. 24 hours after seeding 50 μl each of the compound dilutions in DMEM are added into each well of the 96 well plate. Each compound dilution is tested as quadruplicates. Wells containing untreated control cells are filled with 50 μl DMEM containing 1% DMSO. The cells are then incubated with the substances for 72 hours at 37° C. in a humidified atmosphere containing 5% carbon dioxide. To determine the viability of the cells, 10 μl of an Alamar Blue solution (Biosource) are added and the fluorescence is measured at an extinction of 544 nm and an emission of 590 nm. For the calculation of the cell viability the emission value from untreated cells is set as 100% viability and the emission rates of treated cells are set in relation to the values of untreated cells. Viabilities are expressed as % values.
The corresponding IC50 values of the compounds for anti-proliferative/cytotoxic activity are determined from the concentration-effect curves.
Representative IC50 values for anti-proliferation/cytotoxicity determined in the aforementioned assay are described in the table A (1st column), in which the numbers of the compound correspond to the numbers of the examples.

[2] = system: RKO colon adenocarcinoma cells (RKOp27) arrested by expression of ectopic p27Kip1; assay: Alamar Blue cell viability assay on RKOp27 cells arrested by Ponasterone A-induced p27Kip1 (cell cycle specific mode of action); assay type: cell-based; conditions: Homo sapiens, RKOp27, 72 h, cells arrested by p27Kip1 induced with 10 μM Ponasterone A, 72 hours incubation, read-out: IC50 RKO p27 arrested
Procedure: To determine the cell cycle specific mode of action, subclones of RKO colon adenocarcinoma cells (RKOp27 or RKOp21 as described by Schmidt et al. in Oncogene 19, 2423-2429; 2000) are seeded into 96 well flat bottom plates at a density of 16000 cells per well in a volume of 50 μl per well in DMEM growth medium with 10% FCS containing 10 μM Ponasterone A. 24 hours after seeding 50 μl each of the compound dilutions in DMEM are added into each well of the 96 well plate. Each compound dilution is tested as quadruplicates. Wells containing untreated control cells are filled with 50 μl DMEM containing 1% DMSO. The cells are then incubated with the substances for 72 hours at 37° C. in a humidified atmosphere containing 5% carbon dioxide. To determine the viability of the cells, 10 μl of an Alamar Blue solution (Biosource) are added and the fluorescence is measured at an extinction of 544 nm and an emission of 590 nm. For the calculation of the cell viability the emission value from untreated cells is set as 100% viability and the emission rates of treated cells are set in relation to the values of untreated cells. Viabilities are expressed as % values. Viability is compared of proliferating cells grown in the absence of the inducer Ponasterone A, versus viability of cells arrested by the expression of ectopic p27Kip1 induced by Ponasterone A. The data of this experimental setting are summarized in table A (2nd column).

IC50 [2] [µM]	SMILES	IC50 [1] [nM]
≥ 100	CCOC(=O)N1CCc2c(sc(NC(=O)/C=C/c3cccc4c3OC(F)(F)O4)c2C#N)C1 [Example 230, 3-Cyano-2-[(E)-3-(2,2-difluoro-benzo[1,3]dioxol-4-yl)-allanoylamino]-4,7-dihydro-5H-thieno[2,3-c]pyridine-6-carboxylic acid ethyl ester]	≤ 2000
≥ 100	CCOC(=O)N1CCc2c(sc(NC(=O)/C=C/c3ccc(C)s3)c2C#N)C1 [Example 76, 3-Cyano-2-[(E)-3-(5-methyl-thiophen-2-yl)-allanoylamino]-4,7-dihydro-5H-thieno[2,3-c]pyridine-6-carboxylic acid ethyl ester]	≤ 2000
≥ 100	N#Cc1c(NC(=O)/C=C/c2cccnc2)sc2c1CCN(C(=O)Cc1cccnc1)C2 [Example 205, (E)-N-[3-Cyano-6-(2-pyridin-3-yl-ethanoyl)-4,5,6,7-tetrahydro-thieno[2,3-c]pyridin-2-yl]-3-pyridin-3-yl-acrylamide]	≤ 2000
> 100	CCOC(=O)N1CCc2c(sc(NC(=O)/C=C/c3cccc(OC)c3OC)c2C#N)C1 [Example 20, 3-Cyano-2-[(E)-3-(2,3-dimethoxy-phenyl)-allanoylamino]-4,7-dihydro-5H-thieno[2,3-c]pyridine-6-carboxylic acid ethyl ester]	≤ 2000
> 100	N#Cc1c(NC(=O)/C=C/c2cccnc2)sc2c1CCN(C(=O)OCCc1ccccc1)C2 [Example 47, 3-Cyano-2-((E)-3-pyridin-3-yl-allanoylamino)-4,7-dihydro-5H-thieno[2,3-c]pyridine-6-carboxylic acid phenethyl ester]	≤ 2000
≥ 100	CCOC(=O)N1CCc2c(sc(NC(=O)/C=C/c3cccc4c3OCC4)c2C#N)C1 [Example 234, 3-Cyano-2-((E)-3-2,3-dihydro-benzofuran-7-yl-allanoylamino)-4,7-dihydro-5H-thieno[2,3-c]pyridine-6-carboxylic acid ethyl ester]	≤ 2000
≥ 100	CCOC(=O)N1CCc2c(sc(NC(=O)/C=C/c3ccc(OCC)cc3)c2C#N)C1 [Example 60, 3-Cyano-2-[(E)-3-(4-ethoxy-phenyl)-allanoylamino]-4,7-dihydro-5H-thieno[2,3-c]pyridine-6-carboxylic acid ethyl ester]	≤ 2000
≥ 100	CCOC(=O)N1CCc2c(sc(NC(=O)/C=C/c3ccc[nH]3)c2C#N)C1 [Example 103, 3-Cyano-2-((E)-3-1-H-pyrrol-2-yl-allanoylamino)-4,7-dihydro-5H-thieno[2,3-c]pyridine-6-carboxylic acid ethylester]	≤ 2000
≥ 100	N#Cc1c(NC(=O)/C=C/c2cccnc2)sc2c1CCN(C(=O)Oc1ccccn1)C2 [Example 154, 3-Cyano-2-((E)-3-pyridin-3-yl-allanoylamino)-4,7-dihydro-5H-thieno[2,3-c]pyridine-6-carboxylic acid pyridin-2-yl ester]	≤ 2000
≥ 50	CN(C)CCOC(=O)N1CCc2c(sc(NC(=O)/C=C/c3ccccc3)c2C#N)C1 [Example 113, 3-Cyano-2-((E)-3-phenyl-allanoylamino)-4,7-dihydro-5H-thieno[2,3-c]pyridine-6-carboxylic acid 2-dimethylamino-ethyl ester]	≤ 500
> 100	CCOC(=O)N1CCc2c(sc(NC(=O)/C=C/c3ccccc3C)c2C#N)C1 [Example 12, 3-Cyano-2-((E)-3-o-tolyl-allanoylamino)-4,7-dihydro-5H-thieno[2,3-c]pyridine-6-carboxylic acid ethyl ester]	≤ 2000
≥ 100	CC(=O)OCCCC(=O)N1CCc2c(sc(NC(=O)/C=C/c3ccccc3)c2C#N)C1 [Example 191, Acetic acid 4-[3-cyano-2-((E)-3-phenyl-allanoylamino)-4,7-dihydro-5H-thieno[2,3-c]pyridin-6-yl]-4-oxo-butyl ester]	≤ 2000
≥ 100	CCOc1ccccc1/C=C/C(=O)Nc1sc2c(c1C#N)CCN(C(=O)Cc1cccnc1)C2 [Example 219, (E)-N-[3-Cyano-6-(2-pyridin-3-yl-ethanoyl)-4,5,6,7-tetrahydro-thieno[2,3-c]pyridin-2-yl]-3-(2-ethoxy-phenyl)-acrylamide]	≤ 2000
≥ 100	N#Cc1c(NC(=O)/C=C/c2cccnc2)sc2c1CCN(C(=O)CCc1cccnc1)C2 [Example 193, (E)-N-[3-Cyano-6-(3-pyridin-3-yl-propanoyl)-4,5,6,7-tetrahydro-thieno[2,3-c]pyridin-2-yl]-3-pyridin-3-yl-acrylamide]	≤ 2000
> 100	CCOC(=O)N1CCc2c(sc(NC(=O)/C=C/c3ccc(N(C)C)cc3)c2C#N)C1 [Example 26, 3-Cyano-2-[(E)-3-(4-dimethylamino-phenyl)-allanoylamino]-4,7-dihydro-5H-thieno[2,3-c]pyridine-6-carboxylic acid ethyl ester]	≤ 2000
≥ 100	N#Cc1c(NC(=O)/C=C/c2cccnc2)sc2c1CCN(C(=O)OCCOCc1ccccc1)C2 [Example 166, 3-Cyano-2-((E)-3-pyridin-3-yl-allanoylamino)-4,7-dihydro-5H-thieno[2,3-c]pyridine-6-carboxylic acid 2-benzyloxy-ethyl ester]	≤ 2000
≥ 100	COCCOCC(=O)N1CCc2c(sc(NC(=O)/C=C/c3ccccc3)c2C#N)C1 [Example 175, (E)-N-{3-Cyano-6-[2-(2-methoxy-ethoxy)-ethanoyl]-4,5,6,7-tetrahydro-thieno[2,3-c]pyridin-2-yl}-3-phenyl-acrylamide]	≤ 2000
≥ 100	N#Cc1c(NC(=O)/C=C/c2ccccc2)sc2c1CCN(C(=O)n1ccnc1)C2 [Example 53, (E)-N-[3-Cyano-6-(1-imidazol-1-yl-methanoyl)-4,5,6,7-tetrahydro-thieno[2,3-c]pyridin-2-yl]-3-phenyl-acrylamide]	≤ 2000
≥ 100	COc1ccc(OC(=O)N2CCc3c(sc(NC(=O)/C=C/c4cccnc4)c3C#N)C2)cc1 [Example 143, 3-Cyano-2-((E)-3-pyridin-3-yl-allanoylamino)-4,7-dihydro-5H-thieno[2,3-c]pyridine-6-carboxylic acid 4-methoxy-phenyl ester]	≤ 2000
≥ 100	CCOC(=O)N1CCc2c(sc(NC(=O)/C=C/c3ccc4c(c3Br)OCO4)c2C#N)C1 [Example 232, 2-[(E)-3-(4-Bromo-benzo[1,3]dioxol-5-yl)-allanoylamino]-3-cyano-4,7-dihydro-5H-thieno[2,3-c]pyridine-6-carboxylic acid ethyl ester]	≤ 2000
≥ 100	CCOC(=O)N1CCc2c(sc(NC(=O)/C=C/c3ccccc3OC(F)F)c2C#N)C1 [Example 231, 3-Cyano-2{(E), 3-[2-(1,1-difluoro-methoxy)-phenyl]-allanoylamino}-4,7-dihydro-5H-thieno[2,3-c]pyridine-6-carboxylic acid ethyl ester]	≤ 2000
≥ 100	CCOC(=O)N1CCc2c(sc(NC(=O)/C=C/c3c(F)ccc(F)c3Cl)c2C#N)C1 [Example 57, 2-[(E)-3-(2-Chloro-3,6-difluoro-phenyl)-allanoylamino]-3-cyano-4,7-dihydro-5H-thieno[2,3-c]pyridine-6-carboxylic acid ethyl ester]	≤ 2000
> 100	CCOC(=O)N1CCc2c(sc(NC(=O)/C=C/c3ccc4c(c3)OCO4)c2C#N)C1 [Example 30, 2-((E)-3-Benzo[1,3]dioxol-5-yl-allanoylamino)-3-cyano-4,7-dihydro-5H-thieno[2,3-c]pyridine-6-carboxylic acid ethyl ester]	≤ 2000
